From patent publication US9695155B2, “Herbicidal substituted pyrimidinyloxy benzene compounds” (E. I. DU PONT DE NEMOURS AND COMPANY, priority 2013, dated 2017)

Legend:
pigweed = assay: Test A preemergence; format: in vivo, Amaranthus retroflexus; conditions: for Pigweed plant response rating: 500 g ai/ha
Outline: (§1)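 Visual 0–100 rating (100 = complete control) taken about 10 d post-treatment relative to untreated checks. Preemergence: directed soil spray on sown loam/sand pots. Postemergence: seedlings 2–10 cm, 1–2 leaf. Non-phytotoxic solvent formulation with surfactant.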

corn [1] = assay: Test A preemergence; format: in vivo, Zea mays; conditions: for Plant response rating, Corn: 125 g ai/ha; for Corn plant response rating: 500 g ai/ha
Outline: as §1

large (Lg) crabgrass = assay: Test A postemergence; format: in vivo, Digitaria sanguinalis; conditions: 0 to 100 scale where 0 is no effect and 100 is complete control
Outline: as §1

giant foxtail = assay: Test A postemergence; format: in vivo, Setaria faberii; conditions: 0 to 100 scale where 0 is no effect and 100 is complete control
Outline: as §1

wheat = assay: Test A postemergence; format: in vivo, Triticum aestivum; conditions: 0 to 100 scale where 0 is no effect and 100 is complete control
Outline: as §1

Heteranthera limosa = assay: Test B flooded paddy test; format: in vivo; conditions: Flood, 250 g ai/ha; 0 to 100 scale where 0 is no effect and 100 is complete control
Outline: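 Compound added straight to paddy water, with pots kept flooded 3 cm above soil, on plants grown to the 2-leaf stage. Visual scoring 0-100 (100 = complete control) against untreated controls after 13 to 15 greenhouse days.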

wheat, winter = assay: Test C preemergence; format: in vivo, Triticum aestivum; conditions: for Wheat plant response rating: preemergence
Outline: (§2)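 Visual ratings on a 0–100 scale (100 = complete control) were made versus untreated controls after 13–15 greenhouse days. Chemicals in a surfactant-containing non-phytotoxic solvent were applied either preemergence to seeds in loam–sand soil or postemergence to 1- to 4-leaf plants 2–18 cm tall.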

galium = assay: Test C preemergence; format: in vivo, Galium aparine; conditions: for Galium plant response rating: preemergence; for Plant response rating, Galium: Preemergence, 31 g ai/ha, scale 0 to 100, 0 no effect, 100 complete control
Text: Seeds of plant species selected from blackgrass (Alopecurus myosuroides), Italian ryegrass (Lolium multiflorum), wheat, winter (winter wheat, Triticum aestivum), galium (catchweed bedstraw, Galium aparine), corn (Zea mays), large (Lg) crabgrass (Digitaria sanguinalis), giant foxtail (Setaria faberii), johnsongrass (Sorghum halepense), lambsquarters (Chenopodium album), morningglory (Ipomoea coccinea), yellow nutsedge (Cyperus esculentus), pigweed (Amaranthus retroflexus), ragweed (common ragweed, Ambrosia elatior), soybean (Glycine max), barnyardgrass (Echinochloa crus-galli), oilseed rape (Brassica napus), waterhemp (common waterhemp, Amaranthus rudis), kochia (Kochia scoparia), wild oat (Avena fatua), surinam grass (Brachiaria decumbens), foxtail, green (green foxtail, Setaria viridis), goosegrass (Eleusine indica), bromegrass, downy (downy bromegrass, Bromus tectorum), nightshade (eastern black nightshade, Solanum ptycanthum), cocklebur (common cocklebur, Xanthium strumarium), cupgrass, woolly (woolly cupgrass, Eriochloa villosa), bermudagrass (Cynodon dactylon), sunflower, (common oilseed sunflower, Helianthus annuus), Russian thistle (Salsola kali), and velvetleaf (Abutilon theophrasti) were planted into a blend of loam soil and sand and treated preemergence with test chemicals formulated in a non-phytotoxic solvent mixture which included a surfactant.
At the same time, plants selected from these crop and weed species and also barley, winter (winter barley, Hordeum vulgare), windgrass (Apera spica-venti), chickweed (common chickweed, Stellaria media), deadnettle (henbit deadnettle, Lamium amplexicaule), and canarygrass (littleseed canarygrass, Phalaris minor) were planted in pots containing Redi-Earth® planting medium (Scotts Company, 14111 Scottslawn Road, Marysville, Ohio 43041) comprising spaghnum peat moss, vermiculite, wetting agent and starter nutrients and treated with postemergence applications of test chemicals formulated in the same manner. Plants ranged in height from 2 to 18 cm (1- to 4-leaf stage) for postemergence treatments. Treated plants and controls were maintained in a greenhouse for 13 to 15 days, after which time all species were compared to controls and visually evaluated. Plant response ratings, summarized in Table C, are based on a scale of 0 to 100 where 0 is no effect and 100 is complete control. A dash (-) response means no test result.

johnsongrass = assay: Test C preemergence; format: in vivo, Sorghum halepense; conditions: for Johnsongrass plant response rating: preemergence
Outline: as §2

waterhemp = assay: Test C preemergence; format: in vivo, Amaranthus rudis; conditions: for Waterhemp plant response rating: preemergence
Outline: as §2

Italian ryegrass = assay: Test C postemergence; format: in vivo, Lolium multiflorum
Outline: as §2

corn [2] = assay: Test C postemergence; format: in vivo, Zea mays; conditions: for Corn plant response rating / Plant response rating, Corn: scale 0 to 100 (0 no effect, 100 complete control)
Outline: as §2

[3] = 0 to 100 scale, 0 no effect, 100 complete control, approx. 10 days
[4] = 0 to 100 scale where 0 is no effect and 100 is complete control
[5] = 16 g ai/ha, scale 0 to 100 (0 no effect, 100 complete control)
[6] = 62 g ai/ha, scale 0 (no effect) to 100 (complete control)
[7] = 125 g ai/ha, scale 0 (no effect) to 100 (complete control)
[8] = Preemergence, 31 g ai/ha, scale 0 to 100, 0 no effect, 100 complete control
[9] = Postemergence, 62 g ai/ha, scale 0 to 100 (0 no effect, 100 complete control)
[10] = 16 g ai/ha, postemergence, 0 is no effect, 100 is complete control

SMILES	Plant response rating, Corn (corn [1]; [4])	Plant response rating, Crabgrass, Large (large (Lg) crabgrass; 500 g ai/ha)	Plant response rating, Foxtail, Giant (giant foxtail; 500 g ai/ha)	Plant response rating, Wheat (wheat; 500 g ai/ha)	Plant response rating, Ducksalad (Heteranthera limosa)	Wheat plant response rating (wheat, winter; [5])	Wheat plant response rating (wheat, winter; [6])	Wheat plant response rating (wheat, winter; [7])	Galium plant response rating (galium; [5])	Galium plant response rating (galium; [6])	Galium plant response rating (galium; [7])	Plant response rating, Galium (galium)	Johnsongrass plant response rating (johnsongrass; [5])	Johnsongrass plant response rating (johnsongrass; [6])	Johnsongrass plant response rating (johnsongrass; [7])	Waterhemp plant response rating (waterhemp; [5])	Waterhemp plant response rating (waterhemp; [6])	Waterhemp plant response rating (waterhemp; [7])	Plant response rating, Ryegrass, Italian (Italian ryegrass; [9])	Plant response rating, Corn (corn [2]; Postemergence, 62 g ai/ha)	further results
Fc1cnc(Oc2cccc(C(F)F)c2-n2cc(Cl)cn2)nc1 [Compound 94]	0	90	90	50	40	0	0	5	80	98	100	98	0	35	70	80	100	100	0	35	Plant response rating, Pigweed (pigweed; 125 g ai/ha, 0 to 100 scale where 0 is no effect and 100 is complete control): 100; Pigweed plant response rating (pigweed; [3]): 100; Corn plant response rating (corn [1]; [3]): 30; Plant response rating, Crabgrass, Large (large (Lg) crabgrass; 125 g ai/ha): 50; Plant response rating, Foxtail, Giant (giant foxtail; 125 g ai/ha): 70; Plant response rating, Wheat (wheat; 125 g ai/ha): 0; Plant response rating, Wheat (wheat, winter; [8]): 0; Plant response rating, Johnsongrass (johnsongrass; [8]): 25; Plant response rating, Waterhemp (waterhemp; [8]): 100; Plant response rating (0 to 100), Ryegrass, Italian (Italian ryegrass; 125 g ai/ha, postemergence): 5; Plant response rating, Ryegrass, Italian (Italian ryegrass; Postemergence, 31 g ai/ha, scale 0 to 100 (0 no effect, 100 complete control), 13 to 15 days): 0; Corn plant response rating (corn [2]; 16 g ai/ha, postemergence, visual rating, 13 to 15 days): 5; Plant response rating (0 to 100), Corn (corn [2]; 125 g ai/ha, postemergence): 5; Plant response rating, Corn (corn [2]; Postemergence, 31 g ai/ha, 13 to 15 days): 5
Fc1cnc(Oc2cccc(C(F)F)c2-n2cc(C(F)(F)F)cn2)nc1 [Compound 164]	10	100	100	90	100	0	30	35	75	95	95	100	5	75	80	85	100	100	0	5	Pigweed plant response rating (0 to 100 scale) (pigweed; 125 g ai/ha): 100; Pigweed plant response rating (pigweed; [4]): 100; Corn plant response rating (corn [1]; [4]): 60; Crabgrass, Large plant response rating (large (Lg) crabgrass; 125 g ai/ha): 80; Foxtail, Giant plant response rating (giant foxtail; 125 g ai/ha): 90; Wheat plant response rating (wheat; 125 g ai/ha): 70; Plant response rating (0 to 100), Ryegrass, Italian (Italian ryegrass; [10]): 0; Ryegrass, Italian plant response rating (Italian ryegrass; 31 g ai/ha, postemergence, visual rating, scale 0 to 100 (0 no effect, 100 complete control), 13 to 15 days): 0; Plant response rating, Ryegrass, Italian (Italian ryegrass; 125 g ai/ha, postemergence, visual rating, scale 0 to 100 (0 no effect, 100 complete control)): 0; Plant response rating (0 to 100), Corn (corn [2]; [10]): 0; Corn plant response rating (corn [2]; 31 g ai/ha, postemergence, visual rating, 13 to 15 days): 5; Plant response rating, Corn (corn [2]; 125 g ai/ha, postemergence, visual rating): 5
